This is an account of results in PubChem BioAssay AID1259411 (Chemical Carcinogenesis Research Information System (CCRIS), 2018).

This data set concerns rodent carcinogenicity bioassays, tumor incidence. Kind of data set: CCRIS carcinogenicity studies. The method, boiled down:
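Archive of carcinogenicity, mutagenicity, tumor promotion and tumor inhibition results drawn from journals, NCI reports and other sources, expert-reviewed; covers 1985-2011 and is no longer updated.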

The structures appear in SMILES notation. Activity calls are given as the source filed them. The rule behind the calls is not given here.

Consider `c1ccc2c(c1)ccc1ncccc12`, for which the carcinogen call was “inactive; negative” (Species: RAT, Strain/Sex: SPRAGUE-DAWLEY/FEMALE, Route: SUBCUTANEOUS, Dose: 0, 200 UMOL/KG IN DMSO INTO SUPRASCAPULAR AREA ON DAY 1 OF LIFE FOLLOWED BY 0, 100 UMOL 1/WK AT WK 2-7 THEN O, 200 UMOL/, Dose: 0, 200 UMOL/KG IN DMSO INTO SUPRASCAPULAR AREA ON DAY 1 OF LIFE FOLLOWED BY 0, 100 UMOL 1/WK AT WK 2-7 THEN O, 200 UMOL/) and “inactive; negative” (Species: RAT, Strain/Sex: SPRAGUE-DAWLEY/MALE, Route: SUBCUTANEOUS, Dose: 0, 200 UMOL/KG IN DMSO INTO SUPRASCAPULAR AREA ON DAY 1 OF LIFE FOLLOWED BY 0, 100 UMOL 1/WK AT WK 2-7 THEN O, 200 UMOL/, Dose: 0, 200 UMOL/KG IN DMSO INTO SUPRASCAPULAR AREA ON DAY 1 OF LIFE FOLLOWED BY 0, 100 UMOL 1/WK AT WK 2-7 THEN O, 200 UMOL/).
With `O=C1C=Cc2cccc3cccc1c23`, the carcinogen call is “inactive; negative” (Species: MOUSE, Strain/Sex: ICR/FEMALE, Route: INTRAPERITONEAL, Dose: 0, 0.84, 2.1, 4.2 MG (TOTAL DOSES) ADMINISTERED TO NEWBORN MICE AS 1/7 ON DAY 1, 2/7 ON DAY 8 AND 4/7 ON DAY 15 (STUDY D, Dose: 0, 0.84, 2.1, 4.2 MG (TOTAL DOSES) ADMINISTERED TO NEWBORN MICE AS 1/7 ON DAY 1, 2/7 ON DAY 8 AND 4/7 ON DAY 15 (STUDY D) and “active; positive” (Species: MOUSE, Strain/Sex: ICR/MALE, Route: INTRAPERITONEAL, Dose: 0, 0.84, 2.1, 4.2 MG (TOTAL DOSES) ADMINISTERED TO NEWBORN MICE AS 1/7 ON DAY 1, 2/7 ON DAY 8 AND 4/7 ON DAY 15 (STUDY D, Dose: 0, 0.84, 2.1, 4.2 MG (TOTAL DOSES) ADMINISTERED TO NEWBORN MICE AS 1/7 ON DAY 1, 2/7 ON DAY 8 AND 4/7 ON DAY 15 (STUDY D, Tumor Site: Type of Lesion: LUNG: TUMOR).
`CC(C)(c1ccc(OCC2CO2)cc1)c1ccc(OCC2CO2)cc1` (centres undefined): the carcinogen call was “inactive; negative” (Species: MOUSE, Strain/Sex: CF1/FEMALE, Route: DERMAL, Dose: 0, 1, 10% IN ACETONE 2D/WK FOR 2 YR (STUDY DURATION: 2 YR), Dose: 0, 1, 10% IN ACETONE 2D/WK FOR 2 YR (STUDY DURATION: 2 YR)); “inactive; negative” (Species: MOUSE, Strain/Sex: CF1/MALE, Route: DERMAL, Dose: 0, 1, 10% IN ACETONE 2D/WK FOR 2 YR (STUDY DURATION: 2 YR), Dose: 0, 1, 10% IN ACETONE 2D/WK FOR 2 YR (STUDY DURATION: 2 YR)); “inactive; negative” (Species: MOUSE, Strain/Sex: CF-1/FEMALE, Route: DERMAL, Dose: 0, 1, 10% IN ACETONE (TOTAL DOSE 0.2 ML) 2/WK APPLIED TO DORSAL SKIN FOR DURATION OF STUDY (STUDY DURATION: 2 YR), Dose: 0, 1, 10% IN ACETONE (TOTAL DOSE 0.2 ML) 2/WK APPLIED TO DORSAL SKIN FOR DURATION OF STUDY (STUDY DURATION: 2 YR)); “inactive; negative” (Species: MOUSE, Strain/Sex: CF-1/MALE, Route: DERMAL, Dose: 0, 1, 10% IN ACETONE (TOTAL DOSE 0.2 ML) 2/WK APPLIED TO DORSAL SKIN FOR DURATION OF STUDY (STUDY DURATION: 2 YR), Dose: 0, 1, 10% IN ACETONE (TOTAL DOSE 0.2 ML) 2/WK APPLIED TO DORSAL SKIN FOR DURATION OF STUDY (STUDY DURATION: 2 YR)).
Regarding `c1ccc2c(c1)c1cccc3ccc4cccc2c4c31`, the carcinogen call (Species: RAT, Strain/Sex: OSBORNE-MENDEL/FEMALE, Route: LUNG IMPLANT, Dose: 0, 0.2, 1.0, 5.0 MG IN BEESWAX/TRIOCTANOIN (STUDY DURATION: LIFETIME), Dose: 0, 0.2, 1.0, 5.0 MG IN BEESWAX/TRIOCTANOIN (STUDY DURATION: LIFETIME)) is “inactive; negative”.
As to `NNC(N)=O`, the carcinogen call by setting is: (Species: MOUSE, Strain/Sex: SWISS/FEMALE, Route: ORAL, Dose: 0.0625% IN DRINKING WATER FOR LIFE, Tumor Site: Type of Lesion: BLOOD VESSELS: ANGIOMA, ANGIOSARCOMA, LUNG) “active; positive”; (Species: RAT, Strain/Sex: STRAIN-CD/FEMALE, Route: ORAL, Dose: 500, 1000 PPM IN DIET FOR 78 WK (LOW DOSE) OR 32 WK (HIGH DOSE)) “inactive; negative”.
Regarding `CCC(C)Br` (centres undefined), the carcinogen call (Species: MOUSE, Route: INTRAPERITONEAL, Tumor Site: Type of Lesion: LUNG) is “active; positive”.
`Oc1ccccc1-c1ccccc1`: the carcinogen call by setting is: (Species: GUINEA PIG, Strain/Sex: HARTLEY/MALE, Route: ORAL, Dose: 0, 2% IN DIET (STUDY DURATION: 48 WK)) “inactive; negative”; (Species: HAMSTER, Strain/Sex: SYRIAN/MALE, Route: ORAL, Dose: 0, 2% IN DIET (STUDY DURATION: 48 WK)) “inactive; negative”; (Species: MOUSE, Strain/Sex: B6C3F1/FEMALE, Route: ORAL, Dose: 0, 0.5, 1, 2% IN DIET FOR 96 WK (STUDY DURATION: 104 WK), Dose: 0, 0.5, 1, 2% IN DIET FOR 96 WK (STUDY DURATION: 104 WK)) “inactive; negative”; (Species: MOUSE, Strain/Sex: B6C3F1/FEMALE, Route: ORAL, Dose: 0, 0.5, 1, 2% IN THE DIET FOR 96 WK (STUDY DURATION: 104 WK), Dose: 0, 0.5, 1, 2% IN THE DIET FOR 96 WK (STUDY DURATION: 104 WK)) “inactive; negative”; (Species: MOUSE, Strain/Sex: B6C3F1/MALE, Route: ORAL, Dose: 0, 0.5, 1, 2% IN DIET FOR 96 WK (STUDY DURATION: 104 WK), Dose: 0, 0.5, 1, 2% IN DIET FOR 96 WK (STUDY DURATION: 104 WK)) “inactive; negative”; (Species: MOUSE, Strain/Sex: B6C3F1/MALE, Route: ORAL, Dose: 0, 0.5, 1, 2% IN THE DIET FOR 96 WK (STUDY DURATION: 104 WK), Dose: 0, 0.5, 1, 2% IN THE DIET FOR 96 WK (STUDY DURATION: 104 WK)) “inactive; negative”. In addition, the carcinogen call is “inactive; negative” (Species: MOUSE, Strain/Sex: B6C3F1/MALE, Route: ORAL, Dose: 0, 2% IN DIET (STUDY DURATION: 48 WK)); “inactive; negative” (Species: MOUSE, Strain/Sex: CD-1/FEMALE, Route: DERMAL, Dose: 0, 55.5 MG/ANIMAL IN 0.1 ML ACETONE 3 D/WK FOR 102 WK); “inactive; negative” (Species: MOUSE, Strain/Sex: CD-1/MALE, Route: DERMAL, Dose: 0, 55.5 MG/ANIMAL IN 0.1 ML ACETONE 3 D/WK FOR 102 WK); “active; positive” (Species: RAT, Strain/Sex: F344/MALE, Route: ORAL, Dose: 0, 0.125, 0.25, 0.5, 1.0, 2.0, 4.0% IN DIET FOR 91 WK, Dose: 0, 0.125, 0.25, 0.5, 1.0, 2.0, 4.0% IN DIET FOR 91 WK, Tumor Site: Type of Lesion: KIDNEY: TRANSITIONAL CELL CARCINOMA, URINARY BLADDER: TRANSITIONAL CELL CARCINOMA); “active; positive” (Species: RAT, Strain/Sex: F344/MALE, Route: ORAL, Dose: 0, 0.625, 1.25, 2.5% IN PELLET DIET FOR STUDY DURATION (STUDY DURATION: 91 WK), Dose: 0, 0.625, 1.25, 2.5% IN PELLET DIET FOR STUDY DURATION (STUDY DURATION: 91 WK), Tumor Site: Type of Lesion: BLADDER: TRANSITIONAL CELL PAPILLOMA, TRANSITIONAL CELL CARCINOMA); “inactive; negative” (Species: RAT, Strain/Sex: F344/MALE, Route: ORAL, Dose: 0, 2% IN DIET (STUDY DURATION: 48 WK)). Also, under “Species: RAT, Strain/Sex: F344/MALE, Route: ORAL, Dose: 0, 2% IN DIET FOR 104 WK (STUDY DURATION: 104 WK), Tumor Site: Type of Lesion: BLADDER: CARCINOMA”, the carcinogen call is “active; positive”.
As to `COc1c(Cl)c(Cl)c(Cl)c(Cl)c1Cl`, the carcinogen call is “inactive; negative” (Species: MOUSE, Strain/Sex: B6C3F1/FEMALE, Route: GAVAGE, Dose: 0, 20, 40 MG/KG IN CORN OIL 5 D/WK FOR 104 WK (STUDY DURATION: 105 WK), Dose: 0, 20, 40 MG/KG IN CORN OIL 5 D/WK FOR 104 WK (STUDY DURATION: 105 WK)); “active; positive” (Species: MOUSE, Strain/Sex: B6C3F1/MALE, Route: GAVAGE, Dose: 0, 20, 40 MG/KG IN CORN OIL 5 D/WK FOR 104 WK (STUDY DURATION: 105 WK), Dose: 0, 20, 40 MG/KG IN CORN OIL 5 D/WK FOR 104 WK (STUDY DURATION: 105 WK), Tumor Site: Type of Lesion: ADRENAL MEDULLA: BENIGN PHEOCHROMOCYTOMA, LIVER: HEMANGIOSARCOMA); “equivocal” (Species: RAT, Strain/Sex: F344/FEMALE, Route: GAVAGE, Dose: 0, 20, 40 MG/KG IN CORN OIL 5 D/WK FOR 103 WK (STUDY DURATION: 104 WK), Dose: 0, 20, 40 MG/KG IN CORN OIL 5 D/WK FOR 103 WK (STUDY DURATION: 104 WK), Tumor Site: Type of Lesion: ADRENAL MEDULLA: BENIGN PHEOCHROMOCYTOMA); “active; positive” (Species: RAT, Strain/Sex: F344/MALE, Route: GAVAGE, Dose: 0, 10, 20, 40 MG/KG IN CORN OIL 5 D/WK FOR 103 WK (STUDY DURATION: 104 WK), Dose: 0, 10, 20, 40 MG/KG IN CORN OIL 5 D/WK FOR 103 WK (STUDY DURATION: 104 WK), Tumor Site: Type of Lesion: ADRENAL MEDULLA: BENIGN PHEOCHROMOCYTOMA).
